Data set [1] can be described thus: Pharmacokinetic study in rats after oral administration of TMYX extract (HPLC-MS/MS of plasma). The data set is classed as in vivo, Sprague–Dawley rats. As to conditions: rat plasma, oral TMYX extract 8.3 g/kg single dose; for AUC(0-inf) / half-life / AUC / k el: male, Sprague-Dawley; for AUC(0-inf) / half-life / AUC / k el / C max1: n=6; for AUC: read-out: AUC (0-tn); for k el: read-out: K e (converted); for T max1: n=6, mean ± SD. The protocol: The HPLC-MS/MS system consists of an Agilent 1200 high-performance liquid chromatography coupled with an Aglient 6430 series triple quadrupole mass spectrometer with an electrospray ionization (ESI) source. The chromatographic separation was achieved on a CORTECS C18 column (4.6 mm × 150 mm, 2.7 μm), and the column temperature was kept at 30°C. Mobile phases which consisted of 0.1% formic acid in water (A) and acetonitrile (B) were used in the following gradient elution method: 0-10 min, 10%-85% B; 10-13 min, 85%-95% B; 13-19 min, 95%-95% B. The flow rate was set at 0.3 mL/min, and the injection volume was 10 μL. All data were analyzed by Mass Hunter workstation software (Agilent Technologies, USA).
The mass spectrometer was carried out in both positive and negative ionization multiple-reaction monitoring (MRM) mode. The source parameters were as follows: the capillary voltage set at 300 V for positive ionization mode and -300 V for negative ionization mode, the drying gas temperature was 320°C, the flow was 11 L/min, and nebulizing gas pressure was 30 psi.
The plasma (100 μL) was spiked with 20 μL of methanol, 20 μL of the IS (icariin, 1 μg/mL), and 20 μL of formic acid and then vortex-mixed. The mixture was extracted with 800 μL of ethyl acetate by vortex mixing for 5 min at room temperature. After centrifugation at 14,000 rpm for 10 min, the supernatant was collected to a clean tube and evaporated to dryness under a nitrogen stream. The residue was reconstituted in 50 μL of 50% methanol, vortexed for 5 min, and centrifuged at 14,000 rpm for 10 min. Finally, 10 μL supernatant was injected into the LC-MS/MS system for analysis.
Male Sprague–Dawley rats (230-250 g) were obtained from Beijing HFK Experimental Animal Technology Co., Ltd. The rats were maintained under the control environmental conditions and they fasted for 12 h with free access to water before the experiments. TMYX extracts were dissolved in CMC-Na and administrated orally to rats at 8.3 g/kg. The blood samples (200 μL) were collected from the rat fossa orbitalis vein at 0, 0.03, 0.083, 0.17, 0.25, 0.5, 1, 2, 4, 6, 8, 10, 12, 24, 36, and 48 h after oral administration to heparinized tubes. And then the blood samples were centrifuged at 7,000 rpm for 10 min to get the plasma sample immediately. Finally, the plasma obtained was stored at −70°C until analysis. Pharmacokinetic parameters were calculated by the computer program “Drug and Statistics 2.0” (DAS 2.0) (Medical College of Wannan, China).

The nature of data set [2]: Stability of analytes in rat plasma QC samples under storage conditions. Type of data set: in vitro ADME. As to conditions: n=6, gallic acid, ononin, schisandrin, stilbene glycoside, liquiritigenin, rhein, verbascoside; for Measured Concentration, auto-sampler for 12 h: prepared rat plasma samples; for Measured Concentration, -70°C for 14 days / Measured Concentration, room temperature for 6 h / Measured Concentration, three freeze-thaw cycles: rat plasma. The protocol: Quality control (QC) samples at three concentrations (low, medium, and high concentration) were made up of appropriate mixed standard solutions with blank blood sample as calibration solutions to meet the required concentrations. All the solutions were kept at 4°C.
The stability of analytes in plasma samples was determined by analyzing QC samples of three concentration levels at different conditions: stored at autosampler for 12 h, at room temperature for 6 h, under three freeze-thaw cycles and stored at -70°C for 14 days. All stability studies were measured in six replicates.

Details of data set [3]: method as in PMID 25943824. As to conditions: active ingredients of TMYX with high R values; cited from earlier work.
Where [4] appears, read: high QC: spiked 2000 ng/mL glycyrrhizic acid, 1000 liquiritin, 200 emodin, 100 isoliquiritigenin.
The mark [5] stands for this setting: low QC: spiked 20 ng/mL glycyrrhizic acid, 10 liquiritin, 2 emodin, 1 isoliquiritigenin.
[6] abbreviates: medium QC: spiked 200 ng/mL glycyrrhizic acid, 100 liquiritin, 20 emodin, 10 isoliquiritigenin.

Broadly, the AUC(0-inf) is total exposure, with the tail of the curve extrapolated. A lower AUC(0-inf) goes with low exposure. Usually half-life stands for how long it takes for the measured level to halve. As usually defined, the AUC is concentration integrated over time.

Structures are written as SMILES.

`OC[C@H]1O[C@@H](Oc2c(O)cc(O)cc2/C=C/c2ccc(O)cc2)[C@H](O)[C@@H](O)[C@@H]1O` [stilbene glycoside]: in data set [1], the total exposure AUC(0-inf) is 298 ± 185 ng·h/mL, the half-life is 1.99 ± 1.31 h, the exposure (AUC) was 284 ± 189 ng·h/mL and the k el is 0.000125 s⁻¹. In addition, in data set [1], the “C max1” value is 99.1 ± 27.1 ng/mL and the “T max1” value is 0.50 ± 0.31 h. Further, in data set [2] (setting [4]), the “Measured Concentration, auto-sampler for 12 h” value is 182.40 ± 1.23 ng/mL; the “Measured Concentration, -70°C for 14 days” value was determined as 203.34 ± 1.39 ng/mL; the “Measured Concentration, room temperature for 6 h” value (“Measured Concentration … for 6 h” for short) was 202.79 ± 12.80 ng/mL; the “Measured Concentration, three freeze-thaw cycles” value was found to be 200.45 ± 2.10 ng/mL. Also, in data set [2] (setting [5]), the “Measured Concentration, auto-sampler for 12 h” value turned out to be 1.89 ± 0.00 ng/mL; the “Measured Concentration, -70°C for 14 days” value amounted to 1.99 ± 0.01 ng/mL; the “Measured Concentration … for 6 h” value turned out to be 1.82 ± 0.01 ng/mL; the “Measured Concentration, three freeze-thaw cycles” value is 2.00 ± 0.03 ng/mL. Also, in data set [2] (setting [6]), the “Measured Concentration, auto-sampler for 12 h” value came to 19.00 ± 0.64 ng/mL; the “Measured Concentration, -70°C for 14 days” value is 20.01 ± 0.31 ng/mL; the “Measured Concentration … for 6 h” value turned out to be 20.88 ± 1.19 ng/mL; the “Measured Concentration, three freeze-thaw cycles” value came out at 19.87 ± 1.43 ng/mL. Moreover, in data set [3], the antiinflammatory effects entry is “exert antiinflammatory effects in a dose-dependent manner”.
On to `COc1cc2c(c(OC)c1OC)-c1c(cc(OC)c(OC)c1OC)C[C@](C)(O)[C@@H](C)C2` [schisandrin], for which, in data set [1], the AUC(0-inf) is 473 ± 321 ng·h/mL, the half-life is 2.73 ± 1.54 h, the AUC turned out to be 411 ± 239 ng·h/mL and the k el is 9.44e-05 s⁻¹. Also, in data set [1], the “C max1” value was determined as 92.6 ± 53.0 ng/mL and the “T max1” value worked out at 1.00 ± 0.92 h. In data set [2] (setting [4]), the “Measured Concentration, auto-sampler for 12 h” value is 196.02 ± 2.10 ng/mL; the “Measured Concentration, -70°C for 14 days” value amounted to 183.83 ± 1.00 ng/mL; the “Measured Concentration … for 6 h” value turned out to be 194.61 ± 1.13 ng/mL; the “Measured Concentration, three freeze-thaw cycles” value stood at 189.32 ± 1.74 ng/mL. Besides, in data set [2] (setting [5]), the “Measured Concentration, auto-sampler for 12 h” value is 1.83 ± 0.02 ng/mL; the “Measured Concentration, -70°C for 14 days” value is 1.77 ± 0.03 ng/mL; the “Measured Concentration … for 6 h” value stood at 2.00 ± 0.04 ng/mL; the “Measured Concentration, three freeze-thaw cycles” value was 1.71 ± 0.01 ng/mL. In data set [2] (setting [6]), the “Measured Concentration, auto-sampler for 12 h” value is 18.35 ± 0.09 ng/mL; the “Measured Concentration, -70°C for 14 days” value was 17.86 ± 0.20 ng/mL; the “Measured Concentration … for 6 h” value worked out at 21.15 ± 0.50 ng/mL; the “Measured Concentration, three freeze-thaw cycles” value was found to be 18.28 ± 0.23 ng/mL. Moreover, in data set [3], the antiinflammatory effects result is “exert antiinflammatory effects in a dose-dependent manner”.
As to `COc1ccc(-c2coc3cc(O[C@@H]4O[C@H](CO)[C@@H](O)[C@H](O)[C@H]4O)ccc3c2=O)cc1` [ononin], in data set [1], the total exposure AUC(0-inf) was found to be 69.4 ± 28.5 ng·h/mL, the half-life is 2.85 ± 1.4 h, the AUC stood at 58.2 ± 20.2 ng·h/mL and the k el was 0.000103 s⁻¹. In data set [1], the “C max1” value was found to be 14.4 ± 6.8 ng/mL and the “T max1” value is 0.46 ± 0.10 h. For the same compound, in data set [2] (setting [4]), the “Measured Concentration, auto-sampler for 12 h” value came to 195.34 ± 4.30 ng/mL; the “Measured Concentration, -70°C for 14 days” value is 200.23 ± 3.89 ng/mL; the “Measured Concentration … for 6 h” value came out at 216.32 ± 0.91 ng/mL; the “Measured Concentration, three freeze-thaw cycles” value was 191.28 ± 2.36 ng/mL. In data set [2] (setting [5]), the “Measured Concentration, auto-sampler for 12 h” value turned out to be 1.83 ± 0.01 ng/mL; the “Measured Concentration, -70°C for 14 days” value was found to be 1.95 ± 0.01 ng/mL; the “Measured Concentration … for 6 h” value was determined as 2.02 ± 0.03 ng/mL; the “Measured Concentration, three freeze-thaw cycles” value turned out to be 1.85 ± 0.01 ng/mL. Moreover, in data set [2] (setting [6]), the “Measured Concentration, auto-sampler for 12 h” value was 18.84 ± 0.62 ng/mL; the “Measured Concentration, -70°C for 14 days” value came out at 18.51 ± 0.15 ng/mL; the “Measured Concentration … for 6 h” value turned out to be 20.57 ± 0.26 ng/mL; the “Measured Concentration, three freeze-thaw cycles” value was found to be 18.71 ± 0.26 ng/mL. The antiinflammatory effects entry in data set [3] is “exert antiinflammatory effects in a dose-dependent manner”.
